Data: PMC9588780, “Purification and structural characterization of the Na^+-translocating ferredoxin: NAD^+ reductase (Rnf) complex of Clostridium tetanomorphum” (Nature Communications, 2022)

Key:
[1] = molecular target: T1, Rnf complex (RnfABCDEG), RnfD site (Clostridium tetanomorphum, UniProt A0A923IYK2); experiment: cryo-EM structure ([…] Å); format: binding
T1 construct: native six-subunit membrane complex purified from C. tetanomorphum, in MSP1D1/DMPC nanodisc; RnfD 33 kDa; with Ion-translocating oxidoreductase complex subunit A; Ion-translocating oxidoreductase complex subunit B; Ion-translocating oxidoreductase complex subunit C; Ion-translocating oxidoreductase complex subunit E; Ion-translocating oxidoreductase complex subunit G
T1 sequence (A0A923IZ11 1-435 partner, one chain of several): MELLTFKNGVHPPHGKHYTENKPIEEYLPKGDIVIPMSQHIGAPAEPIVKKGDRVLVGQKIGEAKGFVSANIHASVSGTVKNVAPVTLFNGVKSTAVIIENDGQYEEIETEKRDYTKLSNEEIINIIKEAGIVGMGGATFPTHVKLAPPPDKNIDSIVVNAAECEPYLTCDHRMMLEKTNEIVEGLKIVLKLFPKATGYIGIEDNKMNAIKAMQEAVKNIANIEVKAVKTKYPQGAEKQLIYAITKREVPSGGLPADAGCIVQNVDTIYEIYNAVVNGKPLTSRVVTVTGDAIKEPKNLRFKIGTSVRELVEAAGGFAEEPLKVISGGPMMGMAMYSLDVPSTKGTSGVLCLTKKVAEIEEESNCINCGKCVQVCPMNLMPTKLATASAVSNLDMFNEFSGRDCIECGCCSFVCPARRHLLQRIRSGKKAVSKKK
T1 sequence (A0A923J0P9 1-191 partner, one chain of several): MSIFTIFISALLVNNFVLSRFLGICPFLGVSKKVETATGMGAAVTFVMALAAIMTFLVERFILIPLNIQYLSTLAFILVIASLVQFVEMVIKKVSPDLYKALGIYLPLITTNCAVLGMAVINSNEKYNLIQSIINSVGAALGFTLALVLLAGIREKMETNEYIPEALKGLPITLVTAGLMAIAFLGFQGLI
T1 sequence (A0A923IZB8 1-202 partner, one chain of several): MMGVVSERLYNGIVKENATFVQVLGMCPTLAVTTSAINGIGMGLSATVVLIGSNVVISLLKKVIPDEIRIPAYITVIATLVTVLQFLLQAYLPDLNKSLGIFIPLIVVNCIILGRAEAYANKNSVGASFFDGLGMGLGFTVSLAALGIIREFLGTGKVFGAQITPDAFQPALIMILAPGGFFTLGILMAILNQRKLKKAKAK
T1 sequence (A0A923J084 1-189 partner, one chain of several): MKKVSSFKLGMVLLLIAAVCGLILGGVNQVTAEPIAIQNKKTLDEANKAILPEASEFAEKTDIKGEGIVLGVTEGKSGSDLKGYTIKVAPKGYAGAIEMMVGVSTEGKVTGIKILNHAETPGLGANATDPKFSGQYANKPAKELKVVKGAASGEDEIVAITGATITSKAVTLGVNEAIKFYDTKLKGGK

[2] = molecular target: T2, Rnf complex (RnfABCDEG), RnfG site (Clostridium tetanomorphum, UniProt A0A923J084); experiment: cryo-EM structure ([…] Å); UV fluorescence on SDS-PAGE; format: binding; details: covalent; phosphoester to Thr164 of RnfG
T2 construct: native six-subunit membrane complex purified from C. tetanomorphum, in MSP1D1/DMPC nanodisc; RnfG 20 kDa; with Ion-translocating oxidoreductase complex subunit A; Ion-translocating oxidoreductase complex subunit B; Ion-translocating oxidoreductase complex subunit C; Ion-translocating oxidoreductase complex subunit D; Ion-translocating oxidoreductase complex subunit E
T2 sequence (A0A923J084 1-189, one chain of several): as the sequence (A0A923J084 1-189 partner, one chain of several) above
T2 sequence (A0A923J0P9 1-191 partner, one chain of several): as the sequence (A0A923J0P9 1-191 partner, one chain of several) above
T2 sequence (A0A923IZB8 1-202 partner, one chain of several): as the sequence (A0A923IZB8 1-202 partner, one chain of several) above
T2 sequence (A0A923IZ11 1-435 partner, one chain of several): as the sequence (A0A923IZ11 1-435 partner, one chain of several) above

[3] = molecular target: T3, Rnf complex (RnfABCDEG), RnfC site (Clostridium tetanomorphum, UniProt A0A923IZ11); experiment: NADH oxidation, hexacyanoferrate(III) reduction at […] nm; format: biochemical; details: 200 µM NADH, 100 µM hexacyanoferrate(III), 150 mM NaCl, 50 mM potassium phosphate pH 7.5, 0.05% DDM, room temperature, anaerobic
T3 construct: gene rsxC; native six-subunit membrane complex purified from C. tetanomorphum in DDM (MSP1D1/DMPC nanodisc for cryo-EM); RnfC 1-435, 47 kDa; complex ca. 200-250 kDa; with Ion-translocating oxidoreductase complex subunit A; Ion-translocating oxidoreductase complex subunit B; Ion-translocating oxidoreductase complex subunit D; Ion-translocating oxidoreductase complex subunit E; Ion-translocating oxidoreductase complex subunit G
T3 sequence (A0A923IZ11 1-435, one chain of several): as the sequence (A0A923IZ11 1-435 partner, one chain of several) above
T3 sequence (A0A923J0P9 1-191 partner, one chain of several): as the sequence (A0A923J0P9 1-191 partner, one chain of several) above
T3 sequence (A0A923IZB8 1-202 partner, one chain of several): as the sequence (A0A923IZB8 1-202 partner, one chain of several) above
T3 sequence (A0A923J084 1-189 partner, one chain of several): as the sequence (A0A923J084 1-189 partner, one chain of several) above

[4] = molecular target: T3, Rnf complex (RnfABCDEG), RnfC site; experiment: coupled enzyme assay with Etf/butyryl-CoA dehydrogenase, […] nm; format: biochemical; details: reduced ferredoxin as electron donor (50 µM Fd), crotonyl-CoA, room temperature
[5] = molecular target: T4, RnfD subunit of the Na+-translocating ferredoxin:NAD+ reductase (Rnf) complex of Clostridium tetanomorphum (Clostridium tetanomorphum (endogenous …, UniProt A0A923IYK2 1-310, FMN covalently attached by its phospho group to the Thr153 hydroxy group)); experiment: cryo-EM structure; native Rnf complex of C. tetanomorphum reconstituted into a DMPC-filled MSP1D1 nanodisc; grids prepared in an anaerobic tent (95% N2, 5% H2); 88,423 particles, overall resolution 4.27 Å; details: both partners purified
T4 construct: native subunit of the purified Rnf complex; Also holds a riboflavin
T4 sequence (looked up): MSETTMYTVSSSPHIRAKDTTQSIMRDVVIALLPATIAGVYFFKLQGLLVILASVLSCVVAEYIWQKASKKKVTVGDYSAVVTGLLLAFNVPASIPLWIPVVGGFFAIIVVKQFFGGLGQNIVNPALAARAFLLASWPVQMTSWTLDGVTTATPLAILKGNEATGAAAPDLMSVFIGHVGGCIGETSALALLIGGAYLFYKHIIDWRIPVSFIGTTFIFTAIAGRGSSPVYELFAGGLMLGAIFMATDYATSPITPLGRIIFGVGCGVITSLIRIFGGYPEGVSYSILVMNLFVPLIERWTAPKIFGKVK

In the case of `Cc1cc2nc3c(=O)[nH]c(=O)nc-3n(C[C@H](O)[C@H](O)[C@H](O)COP(=O)(O)O)c2cc1C` [FMN], the “cryo-EM structure (4.27 Å)” value ([1]; covalent, phosphoester to Thr153 of RnfD (covalent FMN seen in structure; RnfD band not detected by UV on SDS-PAGE)) is reported as “The phospho group of FMNRnfD is covalently attached to the well-conserved Thr153 hydroxy group” and the “cryo-EM structure (4.27 Å); UV fluorescence on SDS-PAGE” value [2] is reported as “FMN is covalently attached via its phospho group to the conserved Thr164”.

With `NC(=O)C1=CN([C@@H]2O[C@H](COP(=O)(O)OP(=O)(O)OC[C@H]3O[C@@H](n4cnc5c(N)ncnc54)[C@H](O)[C@@H]3O)[C@@H](O)[C@H]2O)C=CC1` [NADH] the “NADH oxidation, hexacyanoferrate(III) reduction at 420 nm” value [3] was “using hexacyanoferrate(III) as electron acceptor for NADH oxidation”.

In the case of `NC(=O)c1ccc[n+]([C@@H]2O[C@H](COP(=O)(O)OP(=O)(O)OC[C@H]3O[C@@H](n4cnc5c(N)ncnc54)[C@H](O)[C@@H]3O)[C@@H](O)[C@H]2O)c1` [NAD^+], the “coupled enzyme assay with Etf/butyryl-CoA dehydrogenase, 340 nm” value [4] is reported as “The biological relevant NAD^+ reduction with Fdred was determined with a coupled enzyme assay”.

In the case of `Cc1cc2nc3c(=O)[nH]c(=O)nc-3n(C[C@H](O)[C@H](O)[C@H](O)CO)c2cc1C` [RBF, riboflavin], the “cryo-EM structure (4.27 Å)” value ([1]; cytoplasmic half-channel pocket of RnfD near Asn124 and Asp248, density assigned with help of A. vinelandii Rnf structure) is reported as “the density becomes interpretable as riboflavin”.

B1: RnfB subunit of the Na+-translocating ferredoxin:NAD+ reductase (Rnf) complex of Clostridium tetanomorphum (natural protein, UniProt A0A923E755 1-274, looked up)
chain: MEGLLFPVLSLGGLGVVFGLLLGYASKKFAVEVDERVPMVRAALPGANCGGCGFAGCDAYADAVVNAGAKPNGCPVGGAACAAKIAEIMGVVVDSSEPKKAYVKCQGTCDKAKEKYEYYGAMTCVDAANIPGAGSKTCGFGCLGLGSCVQVCAFDAIHVENGIAVVDEEACTGCGACVSICPKSVIELTPMSKKVRISCNSHDKGIEVKNACSVGCLSCGLCVRNCPSEAITMVNNLPVIDYDKCTQCGVCVGKCPTKAIVNLNTNVSKEASNN
notes: native subunit of the purified Rnf complex; Carries five reliably identified [4Fe-4S] clusters; a sixth in FdI is held likely; also called ferredoxin subunit RnfB
B1: binds [5].
